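Following 48 hours of exposure in 96-well plates, responses at five concentrations were used to interpolate endpoints linearly. Abbreviation: GI50, concentration required for 50% inhibition of growth. Definition used: TGI = concentration required for complete inhibition of growth.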 Where only a bound is given, the exact number is not on record here.

Assay in all cases: DTP human tumour cell line panel, 48 h
Test [1] deals with A498 renal.
In test [2] the test system is A549 NSCLC.
Test [3] relates to CAKI-1 renal.
Test [4] has as its system MDA-MB-435.
The subject of test [5] is OVCAR-8 ovarian.
Test [6] deals with SK-MEL-2 melanoma.
Test [7] deals with U251 CNS.
Test [8] has as its system UO-31 renal.
For test [9], the system named is CCRF-CEM leukemia.
Test [10] deals with RPMI-8226 leukemia.

`CC(C)(C)C1=C(Br)C(OC(=O)C(F)(F)F)(C(C)(C)C)OP1(=O)c1ccccc1` (stereo not given): the TGI was over 100 µM in [1]; over 100 µM in [2]; 4.97 µM in test [3]; over 100 µM in test [4]; over 100 µM in test [5]; over 100 µM in test [6]. Moreover, the TGI in test [7] and in test [8] was over 100 µM each time.
Turning to `CCOC(=O)C(C/C=C/CO)N(C)C(=O)OC(C)(C)C` (stereo not given), the TGI in test [1], in [2], in [3], in test [9], in test [5] and in test [10] was over 100 µM throughout. Besides, the TGI in test [6], in [7] and in [8] was over 100 µM in each case.
As for `C(=C/c1nc2ccccc2o1)/c1ccc2c(c1)OCO2`, the total growth inhibition concentration (TGI) in test [1] is 56.8 µM; in test [2], over 81.4 µM; in test [3] it was 40 µM; in test [9], over 100 µM; in test [5], over 100 µM; in [10], over 100 µM. For the same compound, the TGI in [6] amounted to 36.3 µM; in [7], 42.1 µM; in [8], 49.5 µM.
`COc1cc(/C=N/NC2=NCCN2)ccc1O`: the TGI in test [2], in test [9], in test [4], in [5], in test [10] and in [6] was over 100 µM in each case. In addition, the total growth inhibition concentration (TGI) in test [7] and in [8] was over 100 µM in each case.
Regarding `COC(=O)C(NC(=O)OC(C)(C)C)P(=O)(OC)OC` (stereo not given), the TGI in test [1], in test [2], in test [3], in test [4], in [5] and in test [10] was over 100 µM each time. The total growth inhibition concentration (TGI) in test [6], in [7] and in [8] was over 100 µM throughout.
For `NN/C(=N\S(=O)(=O)c1ccc(S(=O)(=O)c2ccccc2)s1)Nc1ccc(Cl)cc1`, the TGI in test [1] was over 100 µM; in test [2], over 100 µM; in test [3], over 100 µM; in test [5], over 100 µM; in test [10], over 100 µM; in [6], 53.8 µM. In addition, the TGI in [7] and in test [8] was over 100 µM throughout.
Regarding `CC(NC(=O)C(Cc1ccc(OC(=O)c2ccccc2)cc1)NC(=O)OC(C)(C)C)C(=O)NCC(=O)NC(Cc1ccccc1)C(=O)NN` (stereo not given), the TGI in [1] is over 100 µM; in test [2] it was over 100 µM; in test [3], over 100 µM; in test [4], over 100 µM; in test [5], over 100 µM; in [10] it was 38.1 µM. The TGI in test [7] and in [8] was over 100 µM each time.
As for `CC(C)(C)[Si](C)(C)OC[C@H](/C=C\CCCC(=O)O)NC1(c2ccccc2)c2ccccc2-c2ccccc21`, the TGI was 32.1 µM in test [1]; over 100 µM in [2]; 93.9 µM in [3]; 39.3 µM in [4]; 46.2 µM in [5]; 23.3 µM in [10]. Also, the TGI is 26.7 µM in [6], 30.6 µM in test [7] and 34.4 µM in test [8].
`CC1OC(=O)C(C(C)C)NC(=O)C(C(C)C)OC(=O)C(C(C)C)NC(=O)C(C)OC(=O)C(C(C)C)NC(=O)C(C(C)C)OC(=O)C(C(C)C)NC(=O)C(C)OC(=O)C(C(C)C)NC(=O)C(C(C)C)OC(=O)C(C(C)C)NC1=O` (stereo not given): the TGI was 0.0383 µM in test [1]; 2.98 µM in [2]; 0.00345 µM in test [3]; 4.2 µM in test [9]; 3.46 µM in test [5]; 0.0158 µM in [10]. Also, the TGI came to 0.167 µM in test [6], 1.05 µM in test [7] and 0.0541 µM in test [8]. For the same compound, the GI50 in test [5] and in test [7] was under 0.0001 µM each time.
Consider `CCN(CC)CCO[Si](OCCN(CC)CC)(OCCN(CC)CC)OCCN(CC)CC`, for which the TGI in [2], in test [3], in test [5], in test [6], in test [7] and in [8] was over 100 µM in each case.
As for `Cc1cc(=O)oc2c(CNC(CC(C)C)C(=O)O)c(O)ccc12` (stereo not given), the TGI in [2], in [3], in test [4], in test [5], in test [10] and in [6] was over 100 µM each time. Also, the TGI in [7] and in test [8] was over 100 µM each time.
As for `CCn1c2ccccc2c2cc(Nc3cc(C)[nH]c(=O)n3)ccc21`, the TGI in [1], in test [2], in [3], in test [4], in [5] and in test [6] was over 100 µM throughout. Further, the TGI in test [7] and in test [8] was over 100 µM in each case.
Consider `S=c1nc[nH]c2c1ncn2C1CCCO1` (stereo not given), for which the TGI in test [1], in [2], in [3], in test [9], in test [5] and in [10] was over 100 µM throughout. Further, the TGI in [6], in test [7] and in [8] was over 100 µM throughout.
Regarding `CCOC(=O)C(C)N1C(=O)c2ccccc2S1(=O)=O` (stereo not given), the GI50 in test [1] is 29.1 µM. Also, the concentration for total growth inhibition (TGI) in test [1], in [2], in [3], in test [9], in test [5] and in [10] was over 100 µM throughout. The TGI in [6], in [7] and in test [8] was over 100 µM in each case.

The TGI is the concentration at which net growth stops. A high value points to less potent growth arrest. The term GI50 denotes the concentration that inhibits growth by half.

Values taken from PubChem BioAssay (NCI).
